Results from patent US20240209028A1, “CNP COMPOUNDS” (priority 2022, published 2024).
Starred links: 1 amine or outer side, 2 acyl side, 3 side chain; linkers in the order of their positions; H or OH if unused. Positions of bridges follow the written chain, without caps; N, C: chain ends. Residues, ends and D or L forms follow the SMILES beside them. *: point of attachment. C18 diacid = O=C(O)CCCCCCCCCCCCCCCCC(=O)*; γGlu = O=C(O)[C@H](CCC(=O)[*:2])N[*:1]; AEEA = NCCOCCOCC(=O)O

Biological target: T1, human natriuretic peptide receptor 2 (hNPR2) (Homo sapiens, UniProt P20594)
T1 construct: expressed in transfected cells; host or cells: HEK293 (ATCC CRL-1573), clone 35, co-transfected with pGloSensor-42F
T1 sequence (P20594 23-1047): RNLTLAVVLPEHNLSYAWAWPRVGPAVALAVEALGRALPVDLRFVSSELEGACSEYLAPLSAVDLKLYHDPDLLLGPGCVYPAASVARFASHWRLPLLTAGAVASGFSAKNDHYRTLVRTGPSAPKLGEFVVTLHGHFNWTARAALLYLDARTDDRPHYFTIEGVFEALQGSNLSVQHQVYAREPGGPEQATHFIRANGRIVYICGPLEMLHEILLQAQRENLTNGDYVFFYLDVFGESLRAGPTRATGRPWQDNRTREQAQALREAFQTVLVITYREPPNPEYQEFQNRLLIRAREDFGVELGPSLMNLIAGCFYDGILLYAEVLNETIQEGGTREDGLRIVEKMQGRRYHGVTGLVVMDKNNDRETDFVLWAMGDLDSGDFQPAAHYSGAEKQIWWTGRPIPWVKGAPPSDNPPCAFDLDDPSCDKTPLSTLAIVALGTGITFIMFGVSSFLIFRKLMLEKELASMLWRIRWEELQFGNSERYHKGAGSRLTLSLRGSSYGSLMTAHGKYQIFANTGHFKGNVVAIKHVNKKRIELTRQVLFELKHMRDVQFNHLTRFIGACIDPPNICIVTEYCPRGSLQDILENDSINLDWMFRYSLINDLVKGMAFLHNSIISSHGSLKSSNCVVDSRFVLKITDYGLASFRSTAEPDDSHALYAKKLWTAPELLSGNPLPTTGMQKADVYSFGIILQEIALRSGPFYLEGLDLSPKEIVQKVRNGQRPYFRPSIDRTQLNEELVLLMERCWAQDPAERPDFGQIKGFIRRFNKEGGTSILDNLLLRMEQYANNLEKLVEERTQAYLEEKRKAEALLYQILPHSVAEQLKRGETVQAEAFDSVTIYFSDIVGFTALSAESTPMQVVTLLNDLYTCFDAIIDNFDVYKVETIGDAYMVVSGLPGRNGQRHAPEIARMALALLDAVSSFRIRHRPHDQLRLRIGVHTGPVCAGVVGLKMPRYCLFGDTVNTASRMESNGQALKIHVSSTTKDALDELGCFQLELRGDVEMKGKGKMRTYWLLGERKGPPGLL
Test: In vitro hNPR2 activity assay (cGMP GloSensor reporter, HEK293)
Format: cell-based
Conditions: 0% HSA; HEK293-hNPR2/GloSensor cells
Summary of the method: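 Potency is the EC50 from a four-parameter logistic fit, also expressed relative to the in-plate CNP22 control (×100), with at least two replicates. Compounds (ten concentrations, […], HSA-free diluent with 1% OVA, 0.01% Tween20) were incubated 30 min at 37 °C on HEK293 cells co-expressing hNPR2 and a GloSensor cGMP luciferase. Luminescence detected with Bright-Glo.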

Row | SMILES | EC50 [nM]
1 | CC[C@H](C)[C@@H]1NC(=O)[C@H](CCCNC(=N)N)NC(=O)[C@H](CCC(=O)O)NC(=O)[C@H](CC(C)C)NC(=O)[C@@H]2CCCN2C(=O)[C@H](CC(C)C)NC(=O)CNC(=O)[C@H](Cc2ccccc2)NC(=O)[C@@H](NC(=O)CNC(=O)[C@H](CCC(N)=O)NC(=O)[C@H](CO)NC(=O)CNC(=O)CNC(=O)[C@H](CCCCN)NC(=O)[C@H](CCCCN)NC(=O)[C@H](CCC(N)=O)NC(=O)[C@H](C)NC(=O)CNC(=O)[C@H](CCCCN)NC(=O)[C@H](Cc2ccc(O)cc2)NC(=O)COCCOCCNC(=O)COCCOCCNC(=O)COCCOCCNC(=O)COCCOCCNC(=O)CC[C@H](NC(=O)CC[C@H](NC(=O)CCCCCCCCCCCCCCCCC(=O)O)C(=O)O)C(=O)O)CSSC[C@@H](C(=O)O)NC(=O)CNC(=O)[C@H](CC(C)C)NC(=O)CNC(=O)[C@H](CO)NC(=O)[C@H](CC(C)C)NC(=O)[C@H](CO)NC(=O)CNC1=O [compound 1489] ({C18 diacid-γGlu-γGlu-AEEA-AEEA-AEEA-AEEA}-YKGAQKKGGSQGCFGLPLERIGSLSGLGC-OH; disulfide 13-29) | 0.22

Same assay, conditions: potency relative to CNP22 (0065)

Row | SMILES | hNPR2 0% HSA. [EC50% rel CNP] [%]
2 | CC[C@H](C)[C@@H]1NC(=O)[C@H](CCCNC(=N)N)NC(=O)[C@H](CC(=O)O)NC(=O)[C@H](CC(C)C)NC(=O)[C@@H]2CCCN2C(=O)[C@H](CC(C)C)NC(=O)CNC(=O)[C@H](Cc2ccccc2)NC(=O)[C@@H](NC(=O)CNC(=O)[C@H](CCCCN)NC(=O)[C@H](CO)NC(=O)[C@H](CC(C)C)NC(=O)CNC(=O)[C@H](CCCCN)NC(=O)[C@H](CCCCN)NC(=O)[C@H](CCC(N)=O)NC(=O)[C@H](C)NC(=O)CNC(=O)[C@H](CCCCN)NC(=O)[C@H](Cc2ccc(O)cc2)NC(=O)[C@H](CCCCN)NC(=O)[C@H](CCCNC(=N)N)NC(=O)[C@H](C)NC(=O)[C@H](CCC(N)=O)NC(=O)[C@@H]2CCCN2C(=O)[C@H](Cc2c[nH]cn2)NC(=O)[C@H](CCC(=O)O)NC(=O)[C@H](CCC(N)=O)NC(=O)COCCOCCNC(=O)COCCOCCNC(=O)CC[C@H](NC(=O)CC[C@H](NC(=O)CC[C@H](NC(=O)CC[C@H](NC(=O)CC[C@H](NC(=O)CCCCCCCCCCCCCCCCC(=O)O)C(=O)O)C(=O)O)C(=O)O)C(=O)O)C(=O)O)CSSC[C@@H](C(=O)O)NC(=O)CNC(=O)[C@H](CC(C)C)NC(=O)CNC(=O)[C@H](CO)NC(=O)[C@H](CC(C)C)NC(=O)[C@H](CO)NC(=O)CNC1=O [compound 1474] ({C18 diacid-γGlu-γGlu-γGlu-γGlu-γGlu-AEEA-AEEA}-QEHPQARKYKGAQKKGLSKGCFGLPLDRIGSLSGLGC-OH; disulfide 21-37; C-terminus assumed) | 62.5
3 | CC[C@H](C)[C@@H]1NC(=O)[C@H](CCCNC(=N)N)NC(=O)[C@H](CC(=O)O)NC(=O)[C@H](CC(C)C)NC(=O)[C@@H]2CCCN2C(=O)[C@H](CC(C)C)NC(=O)CNC(=O)[C@H](Cc2ccccc2)NC(=O)[C@@H](NC(=O)CNC(=O)[C@H](CCC(N)=O)NC(=O)[C@H](CO)NC(=O)CNC(=O)CNC(=O)[C@H](CCCCN)NC(=O)[C@H](CCCCN)NC(=O)[C@H](CCC(N)=O)NC(=O)[C@H](C)NC(=O)CNC(=O)[C@H](CCCCN)NC(=O)[C@H](Cc2ccc(O)cc2)NC(=O)COCCOCCNC(=O)COCCOCCNC(=O)COCCOCCNC(=O)COCCOCCNC(=O)CC[C@H](NC(=O)CC[C@H](NC(=O)CCCCCCCCCCCCCCCCC(=O)O)C(=O)O)C(=O)O)CSSC[C@@H](C(=O)O)NC(=O)CNC(=O)[C@H](CC(C)C)NC(=O)CNC(=O)[C@H](CO)NC(=O)[C@H](CC(C)C)NC(=O)[C@H](CO)NC(=O)CNC1=O [compound 9435] ({C18 diacid-γGlu-γGlu-AEEA-AEEA-AEEA-AEEA}-YKGAQKKGGSQGCFGLPLDRIGSLSGLGC-OH; disulfide 13-29; C-terminus assumed) | 73.6
4 | CC[C@H](C)[C@@H]1NC(=O)[C@H](CCCNC(=N)N)NC(=O)[C@H](CC(=O)O)NC(=O)[C@H](CC(C)C)NC(=O)[C@@H]2CCCN2C(=O)[C@H](CC(C)C)NC(=O)CNC(=O)[C@H](Cc2ccccc2)NC(=O)[C@@H](NC(=O)CNC(=O)[C@H](CCCCN)NC(=O)[C@H](CO)NC(=O)[C@H](CC(C)C)NC(=O)CNC(=O)[C@H](CCCCN)NC(=O)[C@H](CCCCN)NC(=O)[C@H](CCC(N)=O)NC(=O)[C@H](C)NC(=O)CNC(=O)[C@H](CCC(=O)O)NC(=O)[C@H](Cc2ccc(O)cc2)NC(=O)COCCOCCNC(=O)COCCOCCNC(=O)CC[C@H](NC(=O)CCCCCCCCCCCCCCCCC(=O)O)C(=O)O)CSSC[C@@H](C(=O)O)NC(=O)CNC(=O)[C@H](CC(C)C)NC(=O)CNC(=O)[C@H](CO)NC(=O)[C@H](CC(C)C)NC(=O)[C@H](CO)NC(=O)CNC1=O [compound 1225] ({C18 diacid-γGlu-AEEA-AEEA}-YEGAQKKGLSKGCFGLPLDRIGSLSGLGC-OH; disulfide 13-29) | 29.4
5 | CC[C@H](C)[C@@H]1NC(=O)[C@H](CCCNC(=N)N)NC(=O)[C@H](CC(=O)O)NC(=O)[C@H](CC(C)C)NC(=O)[C@@H]2CCCN2C(=O)[C@H](CC(C)C)NC(=O)CNC(=O)[C@H](Cc2ccccc2)NC(=O)[C@@H](NC(=O)CNC(=O)[C@H](CO)NC(=O)[C@H](CO)NC(=O)[C@@H](NC(=O)CNC(=O)[C@H](CCCCN)NC(=O)[C@H](CCCCN)NC(=O)[C@H](CCC(N)=O)NC(=O)[C@H](C)NC(=O)CNC(=O)[C@H](Cc2c[nH]cn2)NC(=O)[C@H](Cc2ccc(O)cc2)NC(=O)[C@H](CCCCN)NC(=O)[C@H](CCCNC(=N)N)NC(=O)[C@H](C)NC(=O)COCCOCCNC(=O)COCCOCCNC(=O)CC[C@H](NC(=O)CC[C@H](NC(=O)CC[C@H](NC(=O)CCCCCCCCCCCCCCCCC(=O)O)C(=O)O)C(=O)O)C(=O)O)C(C)C)CSSC[C@@H](C(=O)O)NC(=O)CNC(=O)[C@H](CC(C)C)NC(=O)CNC(=O)[C@H](CO)NC(=O)[C@H](CC(C)C)NC(=O)[C@H](CO)NC(=O)CNC1=O [compound 1422] ({C18 diacid-γGlu-γGlu-γGlu-AEEA-AEEA}-ARKYHGAQKKGVSSGCFGLPLDRIGSLSGLGC-OH; disulfide 16-32) | 75.3
6 | CC[C@H](C)[C@@H]1NC(=O)[C@H](CCCNC(=N)N)NC(=O)[C@H](CCC(=O)O)NC(=O)[C@H](CC(C)C)NC(=O)[C@@H]2CCCN2C(=O)[C@H](CC(C)C)NC(=O)CNC(=O)[C@H](Cc2ccccc2)NC(=O)[C@@H](NC(=O)CNC(=O)[C@H](CCC(N)=O)NC(=O)[C@H](CO)NC(=O)CNC(=O)CNC(=O)[C@H](CCCCN)NC(=O)[C@H](CCCCN)NC(=O)[C@H](CCC(N)=O)NC(=O)[C@H](C)NC(=O)CNC(=O)[C@H](CCCCN)NC(=O)[C@H](Cc2ccc(O)cc2)NC(=O)COCCOCCNC(=O)COCCOCCNC(=O)COCCOCCNC(=O)COCCOCCNC(=O)CC[C@H](NC(=O)CC[C@H](NC(=O)CCCCCCCCCCCCCCCCC(=O)O)C(=O)O)C(=O)O)CSSC[C@@H](C(=O)O)NC(=O)CNC(=O)[C@H](CC(C)C)NC(=O)CNC(=O)[C@H](CO)NC(=O)[C@H](CC(C)C)NC(=O)[C@H](CO)NC(=O)CNC1=O [compound 1489] ({C18 diacid-γGlu-γGlu-AEEA-AEEA-AEEA-AEEA}-YKGAQKKGGSQGCFGLPLERIGSLSGLGC-OH; disulfide 13-29) | 3.7
7 | CC[C@H](C)[C@@H]1NC(=O)[C@H](CCCNC(=N)N)NC(=O)[C@H](CC(=O)O)NC(=O)[C@H](CC(C)C)NC(=O)[C@@H]2CCCN2C(=O)[C@H](CC(C)C)NC(=O)CNC(=O)[C@H](Cc2ccccc2)NC(=O)[C@@H](NC(=O)CNC(=O)[C@H](CCCCN)NC(=O)[C@H](CO)NC(=O)[C@H](CC(C)C)NC(=O)CNC(=O)[C@H](CCCCN)NC(=O)[C@H](CCCCN)NC(=O)[C@H](CCC(N)=O)NC(=O)[C@H](C)NC(=O)CNC(=O)[C@H](CCCCN)NC(=O)[C@H](Cc2ccc(O)cc2)NC(=O)[C@H](CCCCN)NC(=O)[C@H](CCCNC(=N)N)NC(=O)[C@H](C)NC(=O)COCCOCCNC(=O)COCCOCCNC(=O)CC[C@H](NC(=O)CC[C@H](NC(=O)CC[C@H](NC(=O)CC[C@H](NC(=O)CC[C@H](NC(=O)CCCCCCCCCCCCCCCCC(=O)O)C(=O)O)C(=O)O)C(=O)O)C(=O)O)C(=O)O)CSSC[C@@H](C(=O)O)NC(=O)CNC(=O)[C@H](CC(C)C)NC(=O)CNC(=O)[C@H](CO)NC(=O)[C@H](CC(C)C)NC(=O)[C@H](CO)NC(=O)CNC1=O [compound 1470] ({C18 diacid-γGlu-γGlu-γGlu-γGlu-γGlu-AEEA-AEEA}-ARKYKGAQKKGLSKGCFGLPLDRIGSLSGLGC-OH; disulfide 16-32) | 23.9
8 | CC[C@H](C)[C@@H]1NC(=O)[C@H](CCCNC(=N)N)NC(=O)[C@H](CC(=O)O)NC(=O)[C@H](CC(C)C)NC(=O)[C@@H]2CCCN2C(=O)[C@H](CC(C)C)NC(=O)CNC(=O)[C@H](Cc2ccccc2)NC(=O)[C@@H](NC(=O)CNC(=O)[C@H](CCCCN)NC(=O)[C@H](CO)NC(=O)[C@@H](NC(=O)CNC(=O)[C@@H](NC(=O)[C@H](Cc2c[nH]cn2)NC(=O)[C@H](CCC(N)=O)NC(=O)[C@H](C)NC(=O)CNC(=O)[C@H](Cc2c[nH]cn2)NC(=O)[C@H](Cc2ccc(O)cc2)NC(=O)[C@H](CCCCN)NC(=O)[C@H](CCCNC(=N)N)NC(=O)[C@H](C)NC(=O)COCCOCCNC(=O)COCCOCCNC(=O)CC[C@H](NC(=O)CC[C@H](NC(=O)CC[C@H](NC(=O)CCCCCCCCCCCCCCCCC(=O)O)C(=O)O)C(=O)O)C(=O)O)[C@@H](C)O)C(C)C)CSSC[C@@H](C(=O)O)NC(=O)CNC(=O)[C@H](CC(C)C)NC(=O)CNC(=O)[C@H](CO)NC(=O)[C@H](CC(C)C)NC(=O)[C@H](CO)NC(=O)CNC1=O [compound 1420] ({C18 diacid-γGlu-γGlu-γGlu-AEEA-AEEA}-ARKYHGAQHTGVSKGCFGLPLDRIGSLSGLGC-OH; disulfide 16-32) | 87.5
